These compounds were tested against Human immunodeficiency virus type 1 protease (Human immunodeficiency virus 1, UniProt Q72874) (assay: Inhibitory activity against HIV-1 protease).

Compared with Cc1ccc(C(=O)Nc2cccc(CN3C(=O)N(Cc4cccc(NC(=O)c5ccc(C)cn5)c4)[C@H](Cc4ccccc4)[C@H](O)[C@H]3CCc3ccccc3)c2)nc1, O=C(Nc1cccc(CN2C(=O)N(Cc3cccc(NC(=O)c4nccs4)c3)[C@H](Cc3ccccc3)[C@H](O)[C@H]2CCc2ccccc2)c1)c1nccs1 is 2.6-fold lower in Ki: 79.4 pM for the first, 30.2 pM for the second. The second binds more tightly here.

Going from Nc1cccc(CN2C(=O)N[C@H](CCc3ccccc3)[C@@H](O)[C@H]2Cc2ccccc2)c1 to Nc1cccc(CN2C(=O)N[C@H](Cc3ccccc3)[C@H](O)[C@H]2CCc2ccccc2)c1, the Ki falls from 158000 pM to 6170 pM (26-fold). The second binds more tightly here.

In the case of N/C(=N\O)c1cccc(CN2C(=O)N[C@H](CCc3ccccc3)[C@@H](O)[C@H]2Cc2ccccc2)c1, the Ki is reported as 240 pM.

Source: ChEMBL document CHEMBL1136017, “Computational studies on tetrahydropyrimidine-2-one HIV-1 protease inhibitors: improving three-dimensional quantitative structure-activity relationship comparative molecular field analysis models by inclusion of calculated inhibitor- and receptor-based properties” (J Med Chem, 2002)
